# Strand notation (5' to 3'): a small letter for the sugar, then the base; units joined by * are phosphorothioate-linked, units joined directly phosphodiester-linked; [ ] holds rarer units or linkages, { } end groups; capitals alone tell only the bases. k = constrained ethyl (cEt); [5mC] = 5-methylcytosine; d = 2'-deoxy (DNA)
# Tested on: Yap1 mRNA
# Test: Antisense inhibition of human Yap1 in A-431 cells by cEt gapmers, single dose (Example 2, RTS4814)
# Assay type: cell-based
# How it was run: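 Read-out is Yap1 mRNA as percent of untreated cells, by real-time RT-PCR (probe set RTS4814) normalized to total RNA via RIBOGREEN. Cells were A-431 dosed with 2,000 nM gapmer without transfection for approximately 48 hours.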
# [1] = Table 6, A-431 cells, 5,000 cells per well, free uptake, 2,000 nM modified oligonucleotide, approx. 48 hours, RTS4814, normalized to RIBOGREEN, Yap1 mRNA relative to untreated control cells
# [2] = Table 21, Yap1 mRNA, percent of untreated control, 3-10-3 cEt gapmers targeting SEQ ID NO.: 1 and 2
# [3] = Table 18, A-431 cells, 5,000 cells per well, free uptake, 2,000 nM modified oligonucleotide, approx. 48 hours, RTS4814, normalized to RIBOGREEN, Yap1 mRNA as percent of untreated control
# [4] = Yap1 mRNA as percent of untreated control, A-431 cells, 3-10-3 cEt gapmers targeting SEQ ID NO.: 1, and 2, Table 30
# [5] = Table 24, Yap1 mRNA as percent of untreated control, 3-10-3 cEt gapmers targeting SEQ ID NO.: 1, and 2
# [6] = Table 5, A-431 cells, 5,000 cells per well, free uptake, 2,000 nM modified oligonucleotide, approx. 48 hours, RTS4814, normalized to RIBOGREEN, Yap1 mRNA relative to untreated control cells
# [7] = Table 23, Yap1 mRNA as percent of untreated control, 3-10-3 cEt gapmers, single dose
# [8] = Table 32, Yap1 mRNA, percent of untreated control, 3-10-3 cEt gapmers targeting SEQ ID NO.: 1, and 2
# [9] = Yap1 mRNA as percent of untreated control, A-431 cells, 3-10-3 cEt gapmers targeting SEQ ID NO.: 1, and 2, Table 31
# [10] = Table 20, Yap1 mRNA, percent of untreated control, 3-10-3 cEt gapmers targeting SEQ ID NO.: 1 and 2
# [11] = Table 33, Yap1 mRNA, percent of untreated control, 3-10-3 cEt gapmers targeting SEQ ID NO.: 1, and 2
substance,measurement,setting,value
716366 (k[5mC]*kA*kG*dG*dT*d[5mC]*dG*dG*dT*d[5mC]*dT*d[5mC]*d[5mC]*kG*kA*kG; antisense) [Compound 716366],YAP1 (% UTC),[1],95 % UTC
1075399 (antisense k[5mC]*kA*kT*dA*dT*dA*dT*dA*dT*dG*dG*d[5mC]*d[5mC]*k[5mC]*kT*kT) [Compound 1075399],YAP1 (% UTC),[2],15 % UTC
1074340 (antisense kT*k[5mC]*k[5mC]*d[5mC]*dG*dG*dG*dA*dG*dA*dA*dG*dA*k[5mC]*kA*k[5mC]) [Compound 1074340],YAP1 (% UTC),[3],120 % UTC
1075952 (antisense k[5mC]*kT*kA*dT*dA*dT*dA*d[5mC]*d[5mC]*dT*dG*d[5mC]*dT*kT*k[5mC]*kT) [compound 1075952],YAP1 (% UTC),[4],41 % UTC
1076458 (antisense k[5mC]*kT*kT*dA*dA*dT*dT*dA*dG*d[5mC]*d[5mC]*dT*d[5mC]*kA*kG*kT) [Compound 1076458],YAP1 (% UTC),[5],6 % UTC
716548 (kG*kA*kG*dT*dT*dT*d[5mC]*dA*dA*d[5mC]*dA*d[5mC]*dT*kG*kA*kT; antisense) [Compound 716548],YAP1 (% UTC),[6],31 % UTC
1074282 (antisense k[5mC]*kG*kA*dG*dG*dG*dT*d[5mC]*dA*dA*dG*d[5mC]*d[5mC]*kT*kT*kG) [Compound 1074282],YAP1 (% UTC),[5],83 % UTC
1074761 (kT*kA*k[5mC]*d[5mC]*d[5mC]*dA*dA*dT*dA*d[5mC]*dA*dA*d[5mC]*k[5mC]*kA*kA; antisense) [Compound 1074761],YAP1 (% UTC),[7],15 % UTC
1074994 (antisense kA*kA*kA*d[5mC]*dT*dA*dA*dA*dT*dG*dG*dA*d[5mC]*k[5mC]*kG*kG) [compound 1074994],YAP1 (% UTC),[8],94 % UTC
1074225 (antisense k[5mC]*k[5mC]*kA*dG*dA*dG*dA*d[5mC]*dT*dA*d[5mC]*dT*d[5mC]*k[5mC]*kA*kG) [compound 1074225],YAP1 (% UTC),[9],11 % UTC
1074130 (kA*kT*k[5mC]*d[5mC]*d[5mC]*d[5mC]*d[5mC]*dG*d[5mC]*d[5mC]*d[5mC]*d[5mC]*dG*kG*k[5mC]*kG; antisense) [compound 1074130],YAP1 (% UTC),[8],119 % UTC
716454 (k[5mC]*kG*kA*dG*dA*dT*dT*dT*dA*dA*dA*dT*dA*kA*kG*kG; antisense) [Compound 716454],YAP1 (% UTC),"A-431 cells, 5,000 cells per well, free uptake, 2,000 nM modified oligonucleotide, approx. 48 hours, RTS4814, normalized to RIBOGREEN, Table 4, asterisk (*) = targets amplicon region of primer probe set",27 % UTC
1075728 (k[5mC]*kT*kT*dT*dA*dT*d[5mC]*dG*dG*dA*dG*dG*d[5mC]*kT*kT*k[5mC]; antisense) [compound 1075728],YAP1 (% UTC),[4],15 % UTC
1074118 (antisense k[5mC]*kA*k[5mC]*dT*d[5mC]*dG*dG*dA*d[5mC]*d[5mC]*dT*dG*d[5mC]*kG*kG*k[5mC]) [Compound 1074118],YAP1 (% UTC),[10],66 % UTC
1074195 (antisense k[5mC]*k[5mC]*k[5mC]*dG*dG*dG*dT*d[5mC]*d[5mC]*dG*dG*dA*d[5mC]*kG*kG*k[5mC]) [compound 1074195],YAP1 (% UTC),[11],79 % UTC
1074407 (antisense kT*kA*kA*dA*dG*dT*dA*dT*d[5mC]*dT*dT*dG*d[5mC]*kT*kG*kG) [Compound 1074407],YAP1 (% UTC),[2],6 % UTC
1076051 (k[5mC]*kT*kT*dA*dA*d[5mC]*dT*dA*dT*dT*d[5mC]*dA*dG*k[5mC]*k[5mC]*k[5mC]; antisense) [compound 1076051],YAP1 (% UTC),[11],21 % UTC
1074279 (antisense kG*kT*k[5mC]*dA*dA*dG*d[5mC]*d[5mC]*dT*dT*dG*dG*dG*kT*k[5mC]*kT) [Compound 1074279],YAP1 (% UTC),[2],13 % UTC
716428 (kA*k[5mC]*kA*dG*dG*d[5mC]*dT*d[5mC]*dA*d[5mC]*dT*dT*d[5mC]*k[5mC]*k[5mC]*k[5mC]; antisense) [Compound 716428],YAP1 (% UTC),[6],10 % UTC
716579 (kA*kT*kA*dG*dA*dG*dA*dT*dT*dT*dT*d[5mC]*d[5mC]*k[5mC]*kT*k[5mC]; antisense) [Compound 716579],YAP1 (% UTC),[1],84 % UTC
1075559 (kG*kA*kT*dA*dT*dT*dA*dA*dG*dG*dT*dG*dG*k[5mC]*kT*kT; antisense) [Compound 1075559],YAP1 (% UTC),[2],24 % UTC
1074694 (antisense k[5mC]*k[5mC]*k[5mC]*d[5mC]*d[5mC]*d[5mC]*d[5mC]*d[5mC]*d[5mC]*dA*dA*dA*d[5mC]*kT*kT*kT) [Compound 1074694],YAP1 (% UTC),[10],79 % UTC
1076135 (k[5mC]*kA*kT*dA*dA*dT*dT*dG*dA*d[5mC]*dA*dG*dG*kT*kA*kT; antisense) [Compound 1076135],YAP1 (% UTC),[2],14 % UTC
1075561 (kG*kT*kA*dA*dG*dT*dA*dA*dG*dG*dG*dA*dA*k[5mC]*k[5mC]*k[5mC]; antisense) [Compound 1075561],YAP1 (% UTC),[7],32 % UTC
1074123 (antisense kG*k[5mC]*kT*dG*d[5mC]*dG*dA*dG*dG*d[5mC]*dA*d[5mC]*dT*k[5mC]*kG*kG) [Compound 1074123],YAP1 (% UTC),"Table 25, Yap1 mRNA as percent of untreated control, 3-10-3 cEt gapmers targeting SEQ ID NO.: 1, and 2",72 % UTC
1075825 (k[5mC]*k[5mC]*k[5mC]*d[5mC]*dT*dA*dA*dA*dG*dA*dA*dG*dA*kT*kT*kT; antisense) [compound 1075825],YAP1 (% UTC),[9],44 % UTC
1075209 (antisense k[5mC]*kA*kT*d[5mC]*dA*dA*d[5mC]*dA*dA*dT*dG*dG*dT*k[5mC]*kT*kA) [Compound 1075209],YAP1 (% UTC),[7],11 % UTC
1076166 (kA*kT*kT*dT*dA*d[5mC]*dA*d[5mC]*d[5mC]*dA*d[5mC]*d[5mC]*dG*k[5mC]*k[5mC]*k[5mC]; antisense) [Compound 1076166],YAP1 (% UTC),[10],77 % UTC
1076105 (kT*kA*k[5mC]*dG*dA*dA*dA*dT*dA*dG*dT*dA*dA*k[5mC]*kT*kG; antisense) [Compound 1076105],YAP1 (% UTC),[7],13 % UTC
1075057 (antisense k[5mC]*k[5mC]*kT*dT*dA*dG*dG*dA*dG*dT*dA*dG*dA*k[5mC]*kT*kG) [compound 1075057],YAP1 (% UTC),[9],14 % UTC
1076134 (kG*kA*kT*dT*dA*dG*dA*dG*dT*dT*dG*dG*dG*k[5mC]*kA*kT; antisense) [Compound 1076134],YAP1 (% UTC),[10],10 % UTC
1076210 (kA*kT*kT*dT*dA*dT*dA*dT*dG*d[5mC]*dT*d[5mC]*d[5mC]*k[5mC]*kT*k[5mC]; antisense) [compound 1076210],YAP1 (% UTC),[8],20 % UTC
1075428 (antisense kT*kA*kT*dA*dT*dA*dA*dG*dG*d[5mC]*dA*dT*d[5mC]*kT*kT*kG) [Compound 1075428],YAP1 (% UTC),[3],53 % UTC
1074920 (antisense kA*k[5mC]*kT*d[5mC]*dA*dA*dG*dT*dT*dA*d[5mC]*dA*dT*k[5mC]*k[5mC]*k[5mC]) [Compound 1074920],YAP1 (% UTC),"Table 22, Yap1 mRNA as percent of untreated control, 3-10-3 cEt gapmers, single dose",68 % UTC
1074922 (antisense k[5mC]*kT*kT*dT*d[5mC]*d[5mC]*dA*d[5mC]*dT*d[5mC]*dA*dA*dG*kT*kT*kA) [Compound 1074922],YAP1 (% UTC),[5],87 % UTC
1075012 (antisense k[5mC]*kT*kA*dT*dT*dG*dG*dA*dA*dT*dG*dT*dT*kA*kA*k[5mC]) [Compound 1075012],YAP1 (% UTC),[3],119 % UTC
716509 (antisense kT*kA*kT*dA*d[5mC]*d[5mC]*d[5mC]*dA*dA*dT*dT*dT*dT*kG*k[5mC]*kA) [Compound 716509],YAP1 (% UTC),[6],70 % UTC
1075696 (kT*kT*kA*d[5mC]*dA*dA*dA*dA*dG*dT*dT*dA*d[5mC]*kT*kG*k[5mC]; antisense) [compound 1075696],YAP1 (% UTC),[4],28 % UTC
